Measurements as given in US6355633B1, “Aryl sulfonic acids and derivatives as FSH antagonists” (American Home Products Corporation, priority 1999, dated 2002).

Key:
[1] = tested on: FSH-induced changes in ovarian follicular maturation; experiment: Immature Rat Test Procedure (FSH-induced organ wet weight); type: in vivo; details: immature rats, twice daily for three days with half-maximal dose of hFSH; for IC50 (mg/Kg) ovaries: ovarian wet weight; for IC50 (mg/Kg) uterus: uterine wet weight
Procedure: Immature Rat Test Procedure
In order to assess the ability of compounds to affect FSH-induced changes in ovarian follicular maturation in vivo, immature rats (18 days of age) are treated twice daily for three days with compound in the presence of a half-maximal dose of purified human FSH. Animals are treated via the i.p. or p.o. routes. On the fourth day following treatment, animals are euthanized and the ovaries, uterus and spleen (the spleen is a control tissue that should not respond to FHS stimulation) collected for wet weight determination. In each experiment animals treated with vehicle alone or FSH alone are used as negative and positive controls, respectively.

FSH receptor [2] = molecular target: T1, FSH receptor (Homo sapiens, UniProt P23945); experiment: FSH Receptor Radioligand Membrane Binding Standard Pharmacological Test Procedure; set-up: expressed in transfected cells; details: [125I]FSH binding to membranes of CHO cells stably transfected with the human FSH receptor
T1 sequence (P23945 18-695): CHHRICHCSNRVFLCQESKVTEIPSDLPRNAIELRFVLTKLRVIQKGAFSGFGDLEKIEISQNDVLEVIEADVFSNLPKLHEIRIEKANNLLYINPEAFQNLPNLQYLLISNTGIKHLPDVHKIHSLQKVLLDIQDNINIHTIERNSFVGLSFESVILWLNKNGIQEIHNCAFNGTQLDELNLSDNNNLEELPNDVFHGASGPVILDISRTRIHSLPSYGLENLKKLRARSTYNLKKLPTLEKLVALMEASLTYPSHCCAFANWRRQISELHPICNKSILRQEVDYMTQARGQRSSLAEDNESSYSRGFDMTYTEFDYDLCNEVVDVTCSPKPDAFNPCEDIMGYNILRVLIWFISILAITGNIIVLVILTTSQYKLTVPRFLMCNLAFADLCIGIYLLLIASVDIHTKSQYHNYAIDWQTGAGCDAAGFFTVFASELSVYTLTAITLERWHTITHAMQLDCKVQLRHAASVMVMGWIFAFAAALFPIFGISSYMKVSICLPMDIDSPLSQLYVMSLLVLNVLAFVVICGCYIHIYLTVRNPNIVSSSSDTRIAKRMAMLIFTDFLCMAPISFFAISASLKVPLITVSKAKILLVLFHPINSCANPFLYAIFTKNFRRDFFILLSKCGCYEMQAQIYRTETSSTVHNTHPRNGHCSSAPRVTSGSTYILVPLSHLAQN
Outline: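 Membranes from CHO cells stably expressing human FSH receptor; compounds pre-incubated 15 min at room temperature, then [125I]FSH added (diluted to 200 pM before addition) for 2 h at room temperature in pH 7.2 Tris buffer with protease inhibitors and BSA. Bound radioactivity after filtration counted by gamma counter; non-specific binding defined with unlabelled human FSH.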

FSH receptor [3] = molecular target: T1, FSH receptor; experiment: In Vitro Bio-test Procedure of Agonists and Antagonists to the FSH Receptor (cAMP accumulation in CHO-3D2 cells); type: cell-based; set-up: expressed in transfected cells; host or cells: CHO-3D2 cells
Procedure: In Vitro Bio-test Procedure of Agonists and Antagonists to the FSH Receptor
The compounds were subsequently diluted in sterile procedure medium (Optimem (Gibco/BRL, Grand Island, N.Y.)/0.1% BSA) prior to use in the bio-procedure.
Preparation of CHO-3D2 Cells; CHO-3D2 cells were plated into 96-well Nunc tissue culture plates at a density of 30,000 cells/well in DMEM/F12 medium (Gibco/BRL, Grand Island, N.Y.) supplemented with 5% Fetal Bovine Serum (Hyclone, Fetal Clone II), 2 mM L-glutamine and penicillin/streptomycin (100 U/mL). Cells were plated one day prior to performing the bio-procedure.
Procedure: On the day of procedure, the wells were washed two times with 100 ul/well of pre-warmed (37 deg C.) procedure medium. After aspirating the second wash, an additional 100 ul of procedure medium was added to each well and the cells pre-incubated for 30-45 minutes at 37 deg C. In a humidified incubator with 5%CO2/95% air. The cells were then challenged with varying dilutions of the test substance(s) in a 50 ul total incubation volume in procedure medium for 30 minutes at 37 deg C. in the humidified incubator. The challenge was terminated by the addition of 50 ul of 0.2 N HCl to each well. CAMP accumulation in the medium was measured by radioimmunoassay.
Test Groups: In the 96-well format, the plate is organized into 12 columns each containing 8 rows of wells. The plate was split in half to test a single compound in both agonist and antagonist mode on the same plate.
For agonist mode, compounds were tested using 5 different concentrations in a dose-response paradigm using one column as a control (challenge medium alone) in agonist mode.
The 96-well format allowed for the capability to test 4 columns of compound, using one of the remaining columns for negative control (challenge medium alone) and the other remaining column for ampositive control (ED20 of FSH alone).
The doses chosen to test each compound were extrapolated from the initial screening process (receptor binding data). Along with the test compounds, FSH was run in agonist mode using doses ranging from 0.1 ng/mL-1000 ng/mL as a postive control. Cytotoxicity of the compounds were screened by treating cells with the highest concentration of each compound used in the cAMP procedure for 30 minutes followed by washing of the cells 2 times with 100 ul PBS. The cells were then incubated for 5 min at 37 deg C. in the presence of 50 ug/mL Fluorescein diacetate and 20 ug/mL Propidium iodide in 100 ul PBS. The cells were washed two times with 100 ul PBS followed by examination of the cells under a fluorescence microscope using a 490 nm filter. Viable cells stained green throughout, while dead cells had red fluorescent nuclei.
Analysis of Results: cAMP accumulation was expressed as fmol/mL. […] Data were analyzed statistically by analysis of variance and significant differences between treatments and control determined by Dunnett's test. In antagonist mode, a Duncan's test was used.
Reference Compounds: Test compounds were compared to the effect of purified or recombinant human FSH.

FSH receptor [4] = molecular target: T2, FSH receptor (Rattus norvegicus, UniProt P20395); details: literature report; cited from earlier work
T2 construct: endogenous in cells; host or cells: primary ovarian granulosa cells of DES-treated immature Sprague-Dawley rats
T2 sequence (P20395 18-692): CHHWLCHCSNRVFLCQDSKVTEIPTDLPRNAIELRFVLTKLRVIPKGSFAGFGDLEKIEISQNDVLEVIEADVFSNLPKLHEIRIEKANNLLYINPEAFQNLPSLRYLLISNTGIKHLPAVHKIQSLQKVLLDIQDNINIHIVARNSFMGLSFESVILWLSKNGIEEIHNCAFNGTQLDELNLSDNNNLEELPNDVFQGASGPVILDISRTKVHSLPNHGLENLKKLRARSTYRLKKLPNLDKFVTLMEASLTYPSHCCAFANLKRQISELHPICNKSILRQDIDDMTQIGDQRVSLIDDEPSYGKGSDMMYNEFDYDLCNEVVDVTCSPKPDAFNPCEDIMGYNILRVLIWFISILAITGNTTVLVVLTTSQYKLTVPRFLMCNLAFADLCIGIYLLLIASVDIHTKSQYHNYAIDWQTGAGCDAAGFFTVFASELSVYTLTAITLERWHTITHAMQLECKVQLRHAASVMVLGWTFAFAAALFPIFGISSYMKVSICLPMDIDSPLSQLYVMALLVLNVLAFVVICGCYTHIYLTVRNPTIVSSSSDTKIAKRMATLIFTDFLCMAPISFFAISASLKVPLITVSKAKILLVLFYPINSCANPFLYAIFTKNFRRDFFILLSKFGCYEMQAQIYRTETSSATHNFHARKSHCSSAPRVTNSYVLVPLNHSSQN

Compound	IC50 (FSH receptor [2]) [µM]	IC50 (FSH receptor [3]) [µM]	other results
CSc1ccc(C(=O)Nc2ccc(/C=C/c3ccc(NC(=O)c4ccc(SC)c(S(=O)(=O)N5CCOCC5)c4)cc3S(=O)(=O)OC(C)C)c(S(=O)(=O)OC(C)C)c2)cc1S(=O)(=O)N1CCOCC1 [Example 27k, 2,2′-[(E)-1,2-Ethenediyl]bis[5-[[4-(methylthio)-3-(4-morpholinylsulfonyl)benzoyl]amino]benzenesulfonic Acid], Bis(1-methylethyl) Ester]			IC50 (mg/Kg) ovaries ([1]; ip): 1.1 mg/kg; IC50 (mg/Kg) uterus ([1]; ip): 0.5 mg/kg; IC50 (mg/Kg) ovaries ([1]; po): 4.8 mg/kg; IC50 (mg/Kg) uterus ([1]; po): 1.9 mg/kg
CC(C)OS(=O)(=O)c1cc(NC(=O)c2ccc(S(C)(=O)=O)c([N+](=O)[O-])c2)ccc1/C=C/c1ccc(NC(=O)c2ccc(S(C)(=O)=O)c([N+](=O)[O-])c2)cc1S(=O)(=O)OC(C)C [Example 27m, 2,2′-[(E)-1,2-Ethenediyl]bis[5-[[(4-methylsulfonyl)-3-(nitro)-benzoyl]amino]benzenesulfonic Acid], Bis(1-methylethyl) Ester]			IC50 (mg/Kg) ovaries ([1]; po): 8.4 mg/kg; IC50 (mg/Kg) uterus ([1]; po): 7.9 mg/kg
CCS(=O)(=O)c1ccc(C(=O)Nc2ccc(/C=C/c3ccc(NC(=O)c4ccc(S(=O)(=O)CC)cc4)cc3S(=O)(=O)OC(C)C)c(S(=O)(=O)OC(C)C)c2)cc1 [Example 27z, 2,2′-[(E)-1,2-Ethenediyl]bis[5-[[4-(ethylsulfonyl)benzoyl]amino]benzenesulfonic acid], Bis(1-methylethyl) Ester]			IC50 (mg/Kg) ovaries ([1]; po): >10 mg/kg; IC50 (mg/Kg) uterus ([1]; po): 10 mg/kg
COCCOc1ccc(C(=O)Nc2ccc(/C=C/c3ccc(NC(=O)c4ccc(OC)c(S(=O)(=O)N5CCOCC5)c4)cc3S(=O)(=O)O)c(S(=O)(=O)O)c2)cc1 [Example 42, 5-[[4-(2-Methoxyethoxy)benzoyl]amino]-2-[(E)-2-[4-[[4-methoxy-3-(4-morpholinylsulfonyl)benzoyl]amino]-2-sulfo-phenyl]ethenyl]benzenesulfonic Acid]	6.9	2.7	
Cc1ccc(C(=O)Nc2ccc(S(=O)(=O)O)c3cc(S(=O)(=O)O)cc(S(=O)(=O)O)c23)cc1NC(=O)c1cccc(NC(=O)Nc2cccc(C(=O)Nc3cc(C(=O)Nc4ccc(S(=O)(=O)O)c5cc(S(=O)(=O)O)cc(S(=O)(=O)O)c45)ccc3C)c2)c1 [suramin, Suramin Sodium]			inhibition of FSH binding to its receptor (FSH receptor [4]): inhibit FSH binding to its receptor

Continued, in another order:

IC50 (FSH receptor [2]) [µM]	IC50 (FSH receptor [3]) [µM]	Compound	other results
2	2.1	O=C(CS(=O)(=O)c1ccc(C(=O)Nc2ccc(/C=C/c3ccc(NC(=O)c4ccc(S(=O)(=O)CC(=O)NCCO)cc4)cc3S(=O)(=O)O)c(S(=O)(=O)O)c2)cc1)NCCO [Example 37a, 5-[[4-[[2-[(2-Hydroxyethyl)amino]-2-oxoethyl]sulfonyl]benzoyl]amino]-2-[(E)-2-[4-[[4-[[2-[(2-hydroxyethyl)amino]-2-oxoethyl]sulfonyl]benzoyl]amino]-2-sulfo-phenyl]ethenyl]benzenesulfonic Acid]	
2.9	1.2	NC(=O)CS(=O)(=O)c1ccc(C(=O)Nc2ccc(/C=C/c3ccc(NC(=O)c4ccc(S(=O)(=O)CC(N)=O)cc4)cc3S(=O)(=O)O)c(S(=O)(=O)O)c2)cc1 [Example 37b, 5-[[4-[(2-Amino-2-oxoethyl)sulfonyl]benzoyl]amino]-2-[(E)-2-[4-[[4-[(2-amino-2-oxoethyl)sulfonyl]benzoyl]amino]-2-sulfophenyl]ethenyl]-benzenesulfonic Acid]	
17	28	COc1ccc(C(=O)Nc2ccc(CCc3ccc(NC(=O)c4ccc(OC)c(S(=O)(=O)N5CCCCC5)c4)cc3S(=O)(=O)O)c(S(=O)(=O)O)c2)cc1S(=O)(=O)N1CCCCC1 [Example 43b]	
12	13	O=C(Nc1ccc(CCc2ccc(NC(=O)c3cccc(S(=O)(=O)N4CCOCC4)c3)cc2S(=O)(=O)O)c(S(=O)(=O)O)c1)c1cccc(S(=O)(=O)N2CCOCC2)c1 [Example 43d]	
5	6.4	COCCOc1ccc(C(=O)Nc2ccc(CCc3ccc(NC(=O)c4ccc(OCCOC)c(S(=O)(=O)N5CCOCC5)c4)cc3S(=O)(=O)O)c(S(=O)(=O)O)c2)cc1S(=O)(=O)N1CCOCC1 [Example 43f, 2,2′-(1,2-Ethanediyl)bis[5-[[4-(2-methoxyethoxy)-3-(4-morpholinylsulfony)benzoyl]amino]benzenesulfonc Acid]]	
7	12	COc1ccc(C(=O)Nc2ccc(CCc3ccc(NC(=O)c4ccc(OC)c(S(=O)(=O)N5CCCC5)c4)cc3S(=O)(=O)O)c(S(=O)(=O)O)c2)cc1S(=O)(=O)N1CCCC1 [Example 43g, 2,2′-(1,2-Ethanediyl)bis[5-[[4-methoxy-3-(1-pyrrolidinylsulfonyl)benzoyl]amino]benzenesulfonic Acid]]	
12	12	COCCOc1ccc(C(=O)Nc2ccc(CCc3ccc(NC(=O)c4ccc(OC)c(S(=O)(=O)N5CCOCC5)c4)cc3S(=O)(=O)O)c(S(=O)(=O)O)c2)cc1 [Example 43h, 5-[[4-(2-Methoxyethoxy)benzoyl]amino]-2-[2-[4-[[4-methoxy-3-(4-morpholinylsulfonyl)benzoyl]amino]-2-sulfophenyl]ethyl]benzenesulfonic Acid]	
